Source: ChEMBL document CHEMBL5465560, “Selectivity Literature for EUbOPEN Chemogenomic Library” (2024)
Changes are numbered by the printed parent chain.

Assays:
Conditions in all cases: at 100 nM
[1] = test system: T1, Receptor-type tyrosine-protein kinase FLT3 (Homo sapiens), P36888 [K663Q]; test: (§1) Selectivity interaction (KinomeScan (DiscoverX)) EUB0000695a FLT3
T1 sequence (whole entry): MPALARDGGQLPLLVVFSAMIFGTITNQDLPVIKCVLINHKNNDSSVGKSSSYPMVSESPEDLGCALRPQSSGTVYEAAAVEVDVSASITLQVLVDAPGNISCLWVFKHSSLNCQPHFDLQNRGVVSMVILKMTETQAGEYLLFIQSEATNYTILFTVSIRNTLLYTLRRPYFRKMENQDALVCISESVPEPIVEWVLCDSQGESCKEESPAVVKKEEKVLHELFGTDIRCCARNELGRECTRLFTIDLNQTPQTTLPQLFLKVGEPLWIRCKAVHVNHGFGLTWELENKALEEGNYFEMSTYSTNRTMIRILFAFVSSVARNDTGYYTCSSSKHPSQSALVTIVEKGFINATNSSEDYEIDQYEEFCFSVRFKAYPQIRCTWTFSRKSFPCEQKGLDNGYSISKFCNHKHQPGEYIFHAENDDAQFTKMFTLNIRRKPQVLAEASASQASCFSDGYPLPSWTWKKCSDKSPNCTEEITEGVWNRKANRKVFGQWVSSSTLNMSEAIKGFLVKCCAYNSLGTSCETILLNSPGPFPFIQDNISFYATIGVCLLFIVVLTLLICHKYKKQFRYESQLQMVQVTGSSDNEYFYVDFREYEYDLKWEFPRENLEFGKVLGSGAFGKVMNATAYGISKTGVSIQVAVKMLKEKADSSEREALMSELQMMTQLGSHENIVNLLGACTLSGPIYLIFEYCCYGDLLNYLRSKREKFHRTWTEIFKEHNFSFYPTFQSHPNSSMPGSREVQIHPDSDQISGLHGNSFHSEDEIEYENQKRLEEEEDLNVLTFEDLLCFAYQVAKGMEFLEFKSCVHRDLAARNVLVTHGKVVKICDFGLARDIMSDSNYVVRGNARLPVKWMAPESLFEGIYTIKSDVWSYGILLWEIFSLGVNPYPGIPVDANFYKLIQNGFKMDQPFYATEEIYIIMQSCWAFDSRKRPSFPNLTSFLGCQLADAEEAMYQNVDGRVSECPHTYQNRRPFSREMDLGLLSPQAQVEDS

[2] = test system: T2, Receptor-type tyrosine-protein kinase FLT3 (Homo sapiens), P36888 [D835H]; test: as §1
T2 sequence (whole entry): T1 sequence (whole entry) with Q663K, D835H

[3] = test system: T3, Receptor-type tyrosine-protein kinase FLT3 (Homo sapiens), P36888 [D835Y]; test: as §1
T3 sequence (whole entry): T1 sequence (whole entry) with Q663K, D835Y

Cc1cc(F)c(C(=O)Nc2cccc(-c3nncn3C(C)C)n2)cc1-n1cnc(C2CC2)c1
% of control [1]: 97% | % of control [2]: 100% | % of control [3]: 100%
